Data from patent US12410472B2, “Method for evaluating the eye irritation potential of chemicals” (IMMUNOSEARCH, priority 2016, dated 2025).
Counter-ions that a name gives are not always drawn. Like-named read-outs stand apart in the source and are kept apart here.

Assays:
[1] = system: reconstructed human corneal epithelium model (SkinEthic™ HCE)
Source text: The reconstructed human corneal epithelium model, (SkinEthic™ HCE) was purchased from Episkin in Lyon. The model consists of immortalized human corneal epithelial cells grown in a defined medium at the air-liquid interface. The tissue structure obtained is a multi-layer epithelium similar to the natural tissue structure of the human cornea, comprising 5-7 layers with a surface area of 0.5 cm^2.
Polyhedral cells and wing cells are also present. The tissue also comprises specific ultrastructures such as intermediate filaments, mature hemidesmosomes and desmosomes. […] The tissues are shipped on a semi-solid layer of agarose culture medium. Upon receipt, the tissues are transferred to maintenance medium (1 ml/well) in 6-well plates and incubated in a climatic chamber at 37° C., 5% CO2. The tissues are used 24 hours later.
The procedure for applying solid (powdered) products to the tissues was optimized as follows. First, the products are reduced to the finest possible powder with a mortar. The chemicals are tested at a single dose. In summary, the tissue surface is moistened by adding 20 μl of PBS at 37° C. and incubation for 10 min at 37° C./5% CO2. The corneal epithelia are then treated topically with 30±2 mg (representing 60 mg/cm2) and incubated for 30 min at room temperature. The tissues are then washed with sterile PBS (2×25 ml) at 37° C. PBS is applied to the edge of the insert (not directly on the tissue) to create a gentle vortex that removes the chemical. The tissues on their inserts are then “embedded” in 5 ml of maintenance medium at room temperature for 30 minutes in order to remove as much as possible of the product remaining on the tissue surface. The medium is then removed by gently tapping the insert on absorbent paper, and 50 μl of maintenance medium at 37° C. is added. The inserts are then incubated for 6 h at 37° C./5% CO2.
In summary, corneal tissues are recovered with forceps and placed in tubes for rapid freezing in liquid nitrogen. The RNA is then extracted by the QIAzol technique (Qiagen, Courtaboeuf, France) with an “RNeasy Mini Kit” according to the manufacturer's instructions. In summary, the tissues are placed in 1 ml of QIAzol and homogenized using the TissueLyser II (Qiagen, Courtaboeuf, France) with 2 steel beads. After centrifugation, the supernatant is collected and 0.2 ml of bromochloro propane (Sigma, France) is added, then the whole is vigorously mixed. The homogenate is centrifuged at 12,000 g for 15 min at 4° C. The upper phase (aqueous phase) is added to 600 μl of 70% ethanol and immediately mixed by pipetting. The mixture is transferred to an RNeasy spin column placed on a 2 ml collection tube and the RNA is collected according to the manufacturer's instructions (Qiagen, Courtaboeuf, France).
In summary, the transcription of total RNA is performed with 1 μg of total RNA in a final volume of 20 μl using “Random Primers” (Invitrogen, France) and “SuperScript III Reverse Transcriptase” (Invitrogen, France) according to the manufacturer's instructions. Quantitative RT-PCR uses a PCR reagent mix: SYBR Green Real-Time PCR Master Mix (ROCHE, France) with 0.4 μM of each nucleotide primer in a final volume of 25 μl. The reaction is performed in an LC480 System (ROCHE, France). The amplification program comprises a cycle at 95° C. for 1 min, followed by 40 cycles with denaturation at 95° C. for 15 s, a hybridization and amplification phase at 60° C. for 15 s, followed by a final elongation phase at 72° C. for 40 s.
The relative amount of each transcript is normalized to the average amount of expression of 5 so-called housekeeping genes (Glucuronidase β-GUSB, vacuolar ATPase-ATP6V0E1, H2A Histone Family, Member Y-H2AFY, Glucose-6-Phosphate Dehydrogenase-G6PD and “non-POU domain-containing, octamer-binding”-NONO).
The gene expression rate is measured by an absolute quantification analysis method using an algorithm based on the maximum of the second derivative developed by Roche.

eye = details: cited from earlier work
[2] = classification from the Solid Irritation Index
[3] = solid product applied pure in powder form, 30±2 mg, first of three index values
[4] = solid product applied pure in powder form, 30±2 mg, second of three index values
[5] = solid product applied pure in powder form, 30±2 mg, third of three index values
[6] = Table 6, list of solid chemicals studied
[7] = control chemicals and chemicals of FIG. 1 and FIG. 2

CC(C)(O)CCC(C)(C)O
EIT prediction [1, 2]: Cat 1 | Irritation INDEX [1, 3]: 22 | Irritation INDEX [1, 4]: 23 | Irritation INDEX [1, 5]: 21 | UN-GHS (eye; Draize test classification): Cat 1 | GHS Class (eye; [6]): Cat 1 | eye irritation category as stated in text and figure legends (eye; [7]): category 1

O=C(Nc1ccc(Cl)cc1)Nc1ccc(Cl)c(Cl)c1 [1-(4-Chlorophenyl)-3-(3,4-dichlorophenyl) urea]
EIT prediction [1, 2]: No Cat | Irritation INDEX [1, 3]: 0 | Irritation INDEX [1, 4]: 0 | Irritation INDEX [1, 5]: 1 | UN-GHS (eye; Draize test classification): No Cat | GHS Class (eye; [6]): No cat

Cc1cc(C)nc(Nc2ccccc2)n1 [2-Anilino-4,6-dimethylpyrimidine]
EIT prediction [1]: No Cat | Irritation INDEX ([1]; human, 30 min, 60 mg/cm2): 0 | GHS Class (eye; rabbit, in vivo): No cat | UN-GHS (eye; rabbit, in vivo): No Cat | eye irritation category as stated in text and figure legends (eye; rabbit, in vivo): No category

CC(C)(C)c1cc(Cc2cc(C(C)(C)C)c(O)c(C(C)(C)C)c2)cc(C(C)(C)C)c1O [4,4′-Methylene bis-(2,6-di-tert-butylphenol)]
EIT prediction [1]: No Cat | UN-GHS (eye; Draize test classification): No Cat | GHS Class (eye; [6]): No cat | eye irritation category as stated in text and figure legends (eye; [7]): No category

CCOc1ccc(Br)cc1 [4-Bromophenetol]
EIT prediction [1, 2]: No Cat | Irritation INDEX [1, 3]: 2 | Irritation INDEX [1, 4]: 2 | Irritation INDEX [1, 5]: 3 | UN-GHS (eye; Draize test classification): No Cat | GHS Class (eye; [6]): No cat | eye irritation category as stated in text and figure legends (eye; [7]): No category

CC(C)(C)CC(C)(C)c1cc(Cc2cc(C(C)(C)CC(C)(C)C)cc(-n3nc4ccccc4n3)c2O)c(O)c(-n2nc3ccccc3n2)c1 [Methylene bis-benzotriazolyl tetramethylbutyl phenol]
EIT prediction [1]: No Cat | UN-GHS (eye; Draize test classification): No Cat

F[B-](F)(F)F.[K+] [Potassium tetrafluoroborate]
EIT prediction [1, 2]: No Cat | Irritation INDEX [1, 3]: 4 | Irritation INDEX [1, 4]: 6 | Irritation INDEX [1, 5]: 2 | UN-GHS (eye; Draize test classification): No Cat | GHS Class (eye; [6]): No cat | eye irritation category as stated in text and figure legends (eye; [7]): No category

CC(CN1c2ccccc2Sc2ccccc21)N(C)C (centres unmarked) [Promethazine hydrochloride]
EIT prediction ([1]; human, 30 min, 60 mg/cm2): Cat 1 | UN-GHS (eye; Draize test classification): Cat 1 | GHS Class (eye; [6]): Cat 1 | eye irritation category as stated in text and figure legends (eye; [7]): category 1

O=C([O-])C(=O)[O-].[Na+].[Na+] [Sodium oxalate]
EIT prediction [1]: Cat 1 | UN-GHS (eye; Draize test classification): Cat 1 | GHS Class (eye; [6]): Cat 1 | eye irritation category as stated in text and figure legends (eye; [7]): category 1

CCCCCCCCCCCCCCOC(=O)CCCCCCCCCCCCC [Tetradecyl tetradecanoate]
EIT prediction [1]: No Cat | eye irritation category as stated in text and figure legends (eye; [7]): No category

CC(C)(O)C(=O)O [alpha-Hydroxyisobutyric acid]
EIT prediction ([1]; human, 30 min, 60 mg/cm2): Cat 1 | eye irritation category as stated in text and figure legends (eye; [7]): category 1
